Reference: patent US20230390396A1, “COMPOSITION CONTAINING 5-AMINOLEVULINIC ACID HYDROCHLORIDE” (priority 2020, published 2023)

Assays:
[1] = test system: patient's brain tumor area; assay: Fluorescence visualization of brain tumor after drinking 5-aminolevulinic acid hydrochloride; type: in vivo, human; conditions: 19 mg/kg oral, 3 hours before induction of anesthesia, operation 6 hours after drinking; FIG. 1
[2] = Antioxidative activity (DPPH radical scavenging, modified Blois method); conditions: 2 mL sample + 2 mL 0.2 mM DPPH, 30 minutes, absorbance at 517 nm
Procedure: Radical scavenging activity was used using the cosmetic composition for acne skin improvement according to the example as a sample.
The antioxidative activity (electron donation ability, EDA %) of a sample was measured by modifying the Blois method. 2 mL of the sample was mixed with 2 mL of a 0.2 mM DPPH(1,1-diphenyl-2-picryl hydrazyl) solution, and then allowed to stand for 30 minutes, followed by measuring an absorbance at 517 nm.
The radical scavenging activity was expressed as the rate of decrease in absorbance between the sample-added group and the non-added group. The radical scavenging activity was calculated according to the following equation, and results are summarized in [Table 2] below. As a sample for the control, BHT (synthetic antioxidant) was used.
Radical scavenging activity (%)=(1−Absorbance of sample-added group/Absorbance of non-added group)×100

Row | Structure (SMILES) | Fluorescence of patient's brain tumor area at surgery [1] | Radical scavenging activity [2]
1 | Cl.NCC(=O)CCC(=O)O [5-aminolevulinic acid hydrochloride] | emitting a fluorescent color | –
2 | Cc1cc(C(C)(C)C)c(O)c(C(C)(C)C)c1 [Control, BHT] | – | 55.3 ± 0.45%
